# From patent US7745575B1 (Cellpep Pharma Inc., priority 2004, dated 2010)
# Bridge positions count the residues as written; N and C are the ends. Peptide text beside a SMILES is read from it.
# Columns and labels:
# hIK1 (KCa3.1) = hIK1 (KCa3.1) (Homo sapiens, UniProt O15554); assay: patch-clamp whole-cell recording, Ca2+-activated K+ current block; assay type: cell-based
# Protocol: (§1) Electrophysiological experiments were carried out at 22-24° C. using the patch-clamp whole-cell recording mode. Cells were bathed with mammalian Ringer's solution (in mM): 160 NaCl, 4.5 KCl, 2 CaCl2, 1 MgCl2, and 10 HEPES (pH 7.4 with NaOH), with an osmolarity of 290-320 mOsm. […] A syringe-driven perfusion device was used to exchange the external recording bath solution. Two internal pipette solutions were used, one for measuring voltage-gated K^+ currents that contained (in mM): 155 KF, 2 MgCl2, 10 HEPES, and 10 EGTA (pH 7.2 with KOH), with an osmolarity of 290-320 mOsm and another for measuring Ca^2+-activated K^+ currents that contained (in mM): 135 K-aspartate, 8.7 CaCl2, 2 MgCl2, 10 EGTA, 10 HEPES (pH 7.2 with KOH), with an osmolarity of 290-320 mOsm. A free [Ca^2+]i of 1 μM was calculated. All currents through voltage-gated K^+ channels were elicited by 200 ms depolarising voltage steps from −80 to +40 mV. Potassium currents through KCa1.1, KCa2.1 and KCa3.1 were elicited by 1 μM internal [Ca^2+]i and 400 ms voltage ramps from −120 to 0 mV (for KCa3.1 channel and KCa1.1 channel) and from −120 to +40 mV (for KCa2.1 channel). Electrodes were pulled from glass capillaries (Science Products, Germany), and fire-polished to resistances of 2.5-5 MΩ. Membrane currents were measured with an EPC-9 or EPC-10 patch-clamp amplifier (HEKA Elektronik, Lambrecht, Germany) interfaced to a Macintosh computer running acquisition and analysis software (Pulse and PulseFit). When voltage-gated K^+ currents were measured, the capacitive and leak currents were subtracted using a P/10 procedure. Series resistance compensation (>80%) was used for currents above 2 nA. The holding potential was −80 mV in all experiments.
# mKv1.1 = mKv1.1 (Mus musculus, UniProt P16388); assay: patch-clamp whole-cell recording, K+ current block; assay type: cell-based
# Protocol: as §1
# mKv1.3 = mKv1.3 (Mus musculus, UniProt P16390); assay: patch-clamp whole-cell recording, K+ current block; assay type: cell-based
# Protocol: as §1
# [1] = toxicity in vivo, LD50 after intracerebroventricular injection; details: mouse, icv or intrathecal, 20 g C57/BL6 mice
# Protocol: Groups of six to eight mice per dose were injected with 5 μl peptide solution containing 0.1% (w/v) bovine serum albumin and 0.9% (w/v) NaCl. The LD50 values are set out in Table 5.
# hKv3.2 = molecular target: T1, hKv3.2 (Homo sapiens, UniProt Q96PR1); assay: patch-clamp whole-cell recording, K+ current block; assay type: cell-based
# T1 sequence (Q96PR1 1-638): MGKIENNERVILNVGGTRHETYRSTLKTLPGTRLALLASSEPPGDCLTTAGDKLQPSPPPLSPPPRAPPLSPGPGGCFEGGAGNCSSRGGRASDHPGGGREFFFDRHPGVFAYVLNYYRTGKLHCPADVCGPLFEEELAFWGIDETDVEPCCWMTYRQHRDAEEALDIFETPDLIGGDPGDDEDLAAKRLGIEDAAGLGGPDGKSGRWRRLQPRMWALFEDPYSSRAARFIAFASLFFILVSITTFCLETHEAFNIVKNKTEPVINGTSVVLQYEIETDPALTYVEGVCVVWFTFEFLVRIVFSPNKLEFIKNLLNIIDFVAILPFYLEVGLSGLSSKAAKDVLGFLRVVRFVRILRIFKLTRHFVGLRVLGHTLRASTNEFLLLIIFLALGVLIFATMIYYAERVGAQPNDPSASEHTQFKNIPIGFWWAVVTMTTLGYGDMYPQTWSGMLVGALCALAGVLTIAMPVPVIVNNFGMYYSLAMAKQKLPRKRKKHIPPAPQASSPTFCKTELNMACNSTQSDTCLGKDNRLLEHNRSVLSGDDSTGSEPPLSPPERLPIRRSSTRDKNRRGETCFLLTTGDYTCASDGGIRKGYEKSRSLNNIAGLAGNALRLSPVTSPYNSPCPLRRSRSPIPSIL
# Protocol: as §1
# hKv1.2 = hKv1.2 (Homo sapiens, UniProt P16389); assay: patch-clamp whole-cell recording, K+ current block; assay type: cell-based
# Protocol: as §1
# [2] = molecular target: mKv1.1 (mouse (only by the printed prefix m)) (UniProt P16388)
# [3] = molecular target: hKv3.2 (human (only by the printed prefix h)) (UniProt Q96PR1)
# [4] = molecular target: mKv1.3 (mouse (only by the printed prefix m)) (UniProt P16390)
# [5] = molecular target: hIK1 (human (only by the printed prefix h)) (UniProt O15554)
# [6] = molecular target: hKv1.2 (human (only by the printed prefix h)) (UniProt P16389)
# Chain of mKv1.3 (P16390 whole entry): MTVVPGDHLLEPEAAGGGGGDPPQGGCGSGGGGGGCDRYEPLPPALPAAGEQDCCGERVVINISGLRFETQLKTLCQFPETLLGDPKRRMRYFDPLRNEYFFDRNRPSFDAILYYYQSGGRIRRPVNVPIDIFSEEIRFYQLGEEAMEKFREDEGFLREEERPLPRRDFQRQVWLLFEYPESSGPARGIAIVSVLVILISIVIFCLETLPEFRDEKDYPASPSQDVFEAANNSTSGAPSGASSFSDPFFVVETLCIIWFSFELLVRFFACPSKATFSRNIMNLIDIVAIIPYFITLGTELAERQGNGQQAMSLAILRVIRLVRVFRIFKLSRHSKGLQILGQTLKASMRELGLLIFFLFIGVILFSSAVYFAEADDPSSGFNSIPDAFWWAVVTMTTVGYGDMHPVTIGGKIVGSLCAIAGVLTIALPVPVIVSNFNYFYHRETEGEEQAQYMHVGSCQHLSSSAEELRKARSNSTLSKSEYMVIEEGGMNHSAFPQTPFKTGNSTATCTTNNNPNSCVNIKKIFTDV
# Chain of hIK1 (KCa3.1) (O15554 whole entry, the tested form may be a part): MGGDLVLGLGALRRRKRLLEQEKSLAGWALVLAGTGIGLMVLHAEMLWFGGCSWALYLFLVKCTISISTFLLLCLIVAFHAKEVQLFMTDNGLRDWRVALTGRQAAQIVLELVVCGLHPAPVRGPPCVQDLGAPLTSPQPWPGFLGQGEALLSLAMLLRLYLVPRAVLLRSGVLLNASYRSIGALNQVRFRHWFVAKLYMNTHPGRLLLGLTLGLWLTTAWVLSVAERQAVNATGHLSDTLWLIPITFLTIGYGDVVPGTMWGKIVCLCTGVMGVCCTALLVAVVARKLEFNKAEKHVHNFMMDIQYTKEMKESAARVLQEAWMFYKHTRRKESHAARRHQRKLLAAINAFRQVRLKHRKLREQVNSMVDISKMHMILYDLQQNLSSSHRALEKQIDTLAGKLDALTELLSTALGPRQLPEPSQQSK
# Chain of mKv1.1 (P16388 whole entry): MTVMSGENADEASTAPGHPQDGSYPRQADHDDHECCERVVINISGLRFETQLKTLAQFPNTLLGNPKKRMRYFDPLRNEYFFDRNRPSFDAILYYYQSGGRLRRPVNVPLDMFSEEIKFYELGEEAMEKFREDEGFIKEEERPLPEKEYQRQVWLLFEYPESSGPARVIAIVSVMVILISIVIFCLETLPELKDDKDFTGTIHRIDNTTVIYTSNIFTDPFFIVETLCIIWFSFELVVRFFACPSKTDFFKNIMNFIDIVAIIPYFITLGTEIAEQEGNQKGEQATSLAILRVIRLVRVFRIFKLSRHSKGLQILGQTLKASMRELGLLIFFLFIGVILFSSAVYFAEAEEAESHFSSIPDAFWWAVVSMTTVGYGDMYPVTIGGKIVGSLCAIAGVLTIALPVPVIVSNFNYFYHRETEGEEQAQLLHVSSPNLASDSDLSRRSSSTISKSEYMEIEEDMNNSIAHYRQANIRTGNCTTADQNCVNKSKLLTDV
# Chain of hKv1.2 (P16389 whole entry): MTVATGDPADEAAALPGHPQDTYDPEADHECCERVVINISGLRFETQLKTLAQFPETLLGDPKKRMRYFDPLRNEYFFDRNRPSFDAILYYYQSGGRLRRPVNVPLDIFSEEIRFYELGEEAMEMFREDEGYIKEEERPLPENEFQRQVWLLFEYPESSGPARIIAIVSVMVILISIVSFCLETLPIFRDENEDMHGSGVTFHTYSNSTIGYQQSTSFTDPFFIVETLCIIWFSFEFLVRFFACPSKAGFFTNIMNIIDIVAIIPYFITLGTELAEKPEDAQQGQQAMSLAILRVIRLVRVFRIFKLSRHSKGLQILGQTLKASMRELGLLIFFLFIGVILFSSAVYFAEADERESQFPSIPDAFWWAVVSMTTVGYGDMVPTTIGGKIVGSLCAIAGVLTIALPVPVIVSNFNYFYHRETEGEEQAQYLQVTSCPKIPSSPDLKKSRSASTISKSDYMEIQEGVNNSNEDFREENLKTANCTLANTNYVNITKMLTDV
compound,measurement,setting,value
"CC[C@H](C)[C@@H]1NC(=O)[C@H](CCCCN)NC(=O)[C@@H](NC(=O)[C@H](CCCCN)NC(=O)[C@@H](NC(=O)[C@H](CC(N)=O)NC(=O)[C@@H](NC(=O)[C@@H](NC(=O)[C@@H](NC(=O)CN)C(C)C)[C@@H](C)CC)[C@@H](C)CC)C(C)C)CSSC[C@@H]2NC(=O)[C@H](CCCCN)NC(=O)CNC(=O)[C@H](Cc3ccccc3)NC(=O)[C@H](CCCNC(=N)N)NC(=O)[C@H](CCSC)NC(=O)CNC(=O)[C@H](C)NC(=O)[C@H](CC(=O)O)NC(=O)[C@H](CCCCN)NC(=O)[C@@H]3CSSC[C@@H](C(=O)N[C@H](C(=O)N4CCC[C@H]4C(=O)N[C@@H](CCCCN)C(N)=O)[C@@H](C)O)NC(=O)[C@H](Cc4c[nH]cn4)NC(=O)[C@H](CSSC[C@H](NC(=O)[C@H](CCC(N)=O)NC(=O)[C@H](CCCNC(=N)N)NC(=O)[C@H](CO)NC1=O)C(=O)N[C@@H](CC(C)C)C(=O)N[C@@H](CCCCN)C(=O)N1CCC[C@H]1C(=O)N3)NC(=O)[C@H](CCCCN)NC(=O)CNC(=O)[C@H](CC(N)=O)NC(=O)[C@H](CCSC)NC2=O (H-GVIINVKCKISRQCLKPCKDAGMRFGKCMNGKCHCTPK-NH2; disulfide 8-28, 14-33, 18-35)",IC50,hIK1 (KCa3.1),> 1000 nM
same,IC50,mKv1.1,0.36 ± 0.04 nM
same,IC50,mKv1.3,0.075 ± 0.006 nM
same,LD50,[1],2.25 µg/kg
"CC[C@H](C)[C@@H]1NC(=O)[C@H](CCCCN)NC(=O)[C@@H](NC(=O)[C@H](CCCCN)NC(=O)[C@@H](NC(=O)[C@H](CC(N)=O)NC(=O)[C@@H](NC(=O)[C@@H](NC(=O)[C@@H](NC(=O)CN)C(C)C)[C@@H](C)CC)[C@@H](C)CC)C(C)C)CSSC[C@@H]2NC(=O)[C@H](CCCCN)NC(=O)CNC(=O)[C@H](Cc3ccccc3)NC(=O)[C@H](CCCNC(=N)N)NC(=O)[C@H](CCSC)NC(=O)CNC(=O)[C@H](C)NC(=O)[C@H](CC(=O)O)NC(=O)[C@H](CCCCN)NC(=O)[C@@H]3CSSC[C@@H](C(=O)N[C@H](C(=O)N4CCC[C@H]4C(=O)N[C@@H](CCCCN)C(=O)O)[C@@H](C)O)NC(=O)[C@H](Cc4c[nH]cn4)NC(=O)[C@H](CSSC[C@H](NC(=O)[C@H](CCC(N)=O)NC(=O)[C@H](CCCNC(=N)N)NC(=O)[C@H](CO)NC1=O)C(=O)N[C@@H](CC(C)C)C(=O)N[C@@H](CCCCN)C(=O)N1CCC[C@H]1C(=O)N3)NC(=O)[C@H](CCCCN)NC(=O)CNC(=O)[C@H](CC(N)=O)NC(=O)[C@H](CCSC)NC2=O (H-GVIINVKCKISRQCLKPCKDAGMRFGKCMNGKCHCTPK-OH; disulfide 8-28, 14-33, 18-35)",activity on IK1 (in words),hIK1 (KCa3.1),shares the same activity on IK1
same,IC50,hKv3.2,> 1000 nM
same,activity on Kv1.3 channel (in words),mKv1.3,the most potent Kv1.3 channel blocker characterized so far
same,potency on the Kv1.3 channel relative to OsK1,mKv1.3; compared with OsK1,about five times more potent
same,LD50,[1],2.5 µg/kg
"CC[C@H](C)[C@@H]1NC(=O)[C@H](CCCCN)NC(=O)[C@@H](NC(=O)[C@H](CCCCN)NC(=O)[C@@H](NC(=O)[C@H](CC(N)=O)NC(=O)[C@@H](NC(=O)[C@@H](NC(=O)[C@@H](NC(=O)CN)C(C)C)[C@@H](C)CC)[C@@H](C)CC)C(C)C)CSSC[C@@H]2NC(=O)[C@H](CCCCN)NC(=O)CNC(=O)[C@H](Cc3ccccc3)NC(=O)[C@H](CCCNC(=N)N)NC(=O)[C@H](CCSC)NC(=O)CNC(=O)[C@H](C)NC(=O)[C@H](CC(=O)O)NC(=O)[C@H](CCCCN)NC(=O)[C@@H]3CSSC[C@@H](C(=O)N[C@@H](Cc4ccc(O)cc4)C(=O)N4CCC[C@H]4C(=O)N[C@@H](CCCCN)C(=O)O)NC(=O)[C@H](Cc4c[nH]cn4)NC(=O)[C@H](CSSC[C@H](NC(=O)[C@H](CCC(N)=O)NC(=O)[C@H](CCCNC(=N)N)NC(=O)[C@H](CO)NC1=O)C(=O)N[C@@H](CC(C)C)C(=O)N[C@@H](CCCCN)C(=O)N1CCC[C@H]1C(=O)N3)NC(=O)[C@H](CCCCN)NC(=O)CNC(=O)[C@H](CC(N)=O)NC(=O)[C@H](CCSC)NC2=O (H-GVIINVKCKISRQCLKPCKDAGMRFGKCMNGKCHCYPK-OH; disulfide 8-28, 14-33, 18-35)",IC50,hIK1 (KCa3.1),885 ± 18 nM
same,IC50,mKv1.1,34.4 ± 0.3 nM
same,IC50,mKv1.3,0.122 ± 0.007 nM
same,IC50,hKv1.2,231.8 ± 0.1 nM
same,LD50,[1],9 µg/kg
[A^34]-OsK1 (peptide),ID50,[2],15.8 nM
same,ID50,[3],> 1 µM
same,ID50,[4],0.034 nM
same,ID50,[5],> 1 µM
same,ID50,[6],65 nM
